{"source": "paper PMC2642983", "about": "(AIDS (London, England), 2009)", "key": {"[1]": {"test": "Population pharmacokinetic modelling", "type": "in vivo, human", "details": "for CSF penetration (% of plasma concentration): modeled estimate"}, "HIV RNA in the CSF [2]": {"tested_on": "HIV RNA in the CSF", "test": "Detectable HIV RNA in CSF by CSF atazanavir detectability", "type": "in vivo"}, "plasma proteins": {"tested_on": "plasma proteins", "details": "no reference given; cited from earlier work"}, "wild-type HIV": {"tested_on": "wild-type HIV", "details": "estimated with no protein (protein-free medium); cited from earlier work"}, "[3]": {"details": "for CSF concentrations fold lower than plasma concentrations: even with ritonavir boosting"}, "[4]": {"details": "cited from earlier work"}, "HIV RNA in the CSF [5]": {"tested_on": "HIV RNA in the CSF", "details": "over 3 weeks, all 13 participants receiving monotherapy; cited from earlier work"}, "[6]": {"details": "atazanavir with ritonavir, listed as atazanavir"}}, "note": "Like-named read-outs stand apart in the source and are kept apart here. Marks after values point to notes of the source that are not given here."}
{"molecule": "COC(=O)N[C@H](C(=O)N[C@@H](Cc1ccccc1)[C@@H](O)CN(Cc1ccc(-c2ccccn2)cc1)NC(=O)[C@@H](NC(=O)OC)C(C)(C)C)C(C)(C)C", "note": "[Atazanavir, atazanavir]", "values": [{"measurement": "Intersubject variability of ke", "setting": "[1]; atazanavir with ritonavir", "result": 17, "unit": "%"}, {"measurement": "Residual variability of CSF concentrations", "setting": "[1]; atazanavir with ritonavir", "result": 26, "unit": "%"}, {"measurement": "Residual variability of plasma concentrations", "setting": "[1]; atazanavir with ritonavir", "result": 49, "unit": "%"}, {"measurement": "oral clearance", "setting": "[1]; atazanavir with ritonavir, corresponds to ke and Vd/F", "result": 9.4, "unit": "L/h"}, {"measurement": "Residual variability of CSF concentrations", "setting": "[1]; [6]", "result": 26, "unit": "%"}, {"measurement": "Residual variability of plasma concentrations", "setting": "[1]; [6]", "result": 49, "unit": "%"}, {"measurement": "CSF penetration (% of plasma concentration)", "setting": "[1]; atazanavir with ritonavir", "result": "0.0074 (0.74%)"}, {"measurement": "CSF penetration (% of plasma concentration)", "setting": "[1]; [6]", "result": 0.74, "unit": "%"}, {"measurement": "Vd/F", "setting": "[1]; human, plasma, oral", "result": 209, "unit": "L"}, {"measurement": "half-life", "setting": "[1]; human, plasma, oral", "result": 15, "unit": "h"}, {"measurement": "k el", "setting": "[1]; human, plasma, oral", "result": "1.25e-05", "unit": "s⁻¹"}, {"measurement": "median (IQR) plasma concentration", "setting": "11 samples with no detectable CSF atazanavir but measurable plasma atazanavir", "result": "315 (280–432) ng/ml"}, {"measurement": "estimated free concentration of atazanavir in plasma", "setting": "14% of 1510 ng/ml", "result": "approximately 210 ng/ml"}, {"measurement": "plasma samples with undetectable atazanavir", "setting": "<0.13 μg/ml, 17 of 149 samples", "result": 11, "unit": "%"}, {"measurement": "Median (interquartile range) plasma atazanavir concentration", "setting": "atazanavir alone, without ritonavir", "result": "523 (283–1344) ng/ml"}, {"measurement": "median (IQR) plasma concentration", "setting": "corresponding to the 60 CSF samples with detectable atazanavir", "result": "1743 (925–2919) ng/ml"}, {"measurement": "Median (interquartile range) plasma atazanavir concentration", "setting": "with concomitant ritonavir", "result": "1278 (525–2265) ng/ml"}, {"measurement": "Median (range) plasma concentration", "setting": "with ritonavir 100 mg daily, 130 plasma samples", "result": "1278 (<128–5295) ^* ng/ml"}, {"measurement": "Median (range) plasma concentration", "setting": "without ritonavir, 18 plasma samples, 300 or 400 mg atazanavir daily", "result": "523 (<128–6200) ng/ml"}, {"measurement": "participants with measurable CSF HIV RNA", "setting": "HIV RNA in the CSF [2]; 12/60 participants with more than 5 ng/ml atazanavir in the CSF, P = 0.13", "result": 20, "unit": "%"}, {"measurement": "participants with detectable (>50 copies/ml) HIV RNA in the CSF", "setting": "HIV RNA in the CSF [2]; seven of 19 participants with no measurable atazanavir in the CSF", "result": 37, "unit": "%"}, {"measurement": "bound to plasma proteins", "setting": "plasma proteins", "result": 86, "unit": "%"}, {"measurement": "free (not bound to plasma proteins)", "setting": "plasma proteins", "result": 14, "unit": "%"}, {"measurement": "wild-type IC50", "setting": "wild-type HIV", "result": 1, "unit": "ng/mL"}, {"measurement": "CSF specimens with concentrations near the protein-free IC50 (<5 ng/ml)", "setting": "[3]; 11/67, after excluding probable nonadherence", "result": 16, "unit": "%"}, {"measurement": "CSF samples with undetectable atazanavir", "setting": "[3]; <5 ng/ml, 19 of 79 samples", "result": 24, "unit": "%"}, {"measurement": "observed CSF concentrations", "setting": "[3]; as summarised in the discussion", "result": 10, "unit": "ng/mL"}, {"measurement": "CSF concentrations fold lower than plasma concentrations", "setting": "[3]", "result": "about 100 fold"}, {"measurement": "CSF concentrations fold lower than plasma concentrations", "setting": "[3]; listed as atazanavir", "result": 100, "unit": "fold"}, {"measurement": "Kp", "setting": "[3]; human, CSF, oral", "result": "< 0.01"}, {"measurement": "Median (interquartile range) CSF concentration", "setting": "[3]; with ritonavir", "result": "10.3 (<5–21.1) ng/ml"}, {"measurement": "Median (range) CSF concentration", "setting": "[3]; with ritonavir, 68 CSF samples", "result": "10.3 (<5–38) ^† ng/ml"}, {"measurement": "Median (interquartile range) CSF concentration", "setting": "[3]; without ritonavir", "result": "7.9 (6.6–22) ng/ml"}, {"measurement": "Median (range) CSF concentration", "setting": "[3]; without ritonavir, 11 CSF samples", "result": "7.9 (<5–40) ng/ml"}, {"measurement": "atazanavir CSF concentrations, average % of plasma concentrations", "setting": "[4]; in vivo", "result": 0.9, "unit": "%"}, {"measurement": "CSF atazanavir concentrations as % of plasma concentrations", "setting": "[4]; seven HIV-infected patients", "result": "approximately 1%"}]}
{"molecule": "lopinavir/ritonavir", "values": [{"measurement": "change in CSF HIV RNA levels", "setting": "HIV RNA in the CSF [5]", "result": "substantial declines in CSF HIV RNA levels"}]}
